Laboratory results taken from patent US12084415B2, “Biomolecule-polymer-pharmaceutical agent conjugates for delivering the pharmaceutical agent” (Massachusetts Institute of Technology, priority 2021, dated 2024).

Test system: BT474 xenograft tumor
Experiment: Antitumor efficacy in BT474 xenograft tumor model
Conditions: for tumor volume at day 30: 3 doses
[1] = PROTAC (ARV771) payload, 3 doses once a week

Experimental: The antitumor efficacy was monitored thorough the measurement of tumor volume size.
We used the ABC platform for antibody targeted delivery of PROTAC to tumors for cancer therapy. We chose ARV771 as the payload. We used PROTAC-ABC (ABC_ARV771) to perform in vivo anti-cancer study. The HER2 overexpressed BT474 xenograft mice model was also used for this study. 6 different treatments were performed on mice bearing ˜50 mm^3 volume tumor. 3 doses for treatment were performed once a week.

Row | Compound | tumor volume at day 30 (PROTAC (ARV771) payload) | tumor volume [1] | tumor volume (one dose injection, comparison with Kadcyla)
1 | Cc1sc2c(c1C)C(c1ccc(Cl)cc1)=N[C@@H](CC(=O)Nc1ccc(OCCOCCOCCOCCNc3cccc4c3C(=O)N(C3CCC(=O)NC3=O)C4=O)cc1)c1nnc(C)n1-2 (some centres unmarked) [ARV825] | no therapeutic effects | little therapeutic effects | –
2 | ado-trastuzumab emtansine [ADC] | – | – | good anticancer efficiency
3 | Cc1ncsc1-c1ccc([C@H](C)NC(=O)[C@@H]2C[C@@H](O)CN2C(=O)[C@@H](NC(=O)COCCCOCCNC(=O)C[C@@H]2N=C(c3ccc(Cl)cc3)c3c(sc(C)c3C)-n3c(C)nnc32)C(C)(C)C)cc1 [ARV771] | no therapeutic effects | little therapeutic effects | –
